Laboratory results: patent US9187439B2, “Tricyclic compounds useful as neurogenic and neuroprotective agents” (INCEPTION 1, INC., priority 2011, dated 2015)

What was measured:
[1] = tested on: mitochondria isolated from HeLa cells; assay: HeLa cytochrome C release assay; format: biochemical; conditions: at a concentration of 10 μM; release initiated with t-Bid 25 nM
Procedure: HeLa Cytochrome C Release Assay
Inhibition of the pro-apoptotic protein cytochorome C by a compound of Formula I (and/or a compound of any of the other formulae described herein), was evaluated in mitochondria isolated from HeLa cells. In the assay, 10-20 million HeLa cells were resuspended in assay buffer (70 mM sucrose; 230 mM mannitol; 1 mM EDTA; 5 mM HEPES, pH 7 with KOH) containing protease inhibitor cocktail (Sigma P-8340) and treated with 1.5 μg/million cells digitonin for 5 minutes at 4° C. Cells were pelleted by centrifugation and washed twice with assay buffer containing 0.5% BSA. Cells were resuspended in assay buffer and homogenized with a Dounce homogenizer (60 strokes) on ice. Intact cells were removed by centrifugation (1000×g, 10 min) and the supernatant centrifuged (8,500×g, 10 min) The mitochondrial pellet was resuspended in assay buffer to achieve a protein concentration of 0.333 μg/ml. 15 μl of Test compound (at 5× dilution) was combined with 45 μl mitochondria and incubated for 15 min at RT. Cytochrome C release was initiated with 15 μl t-Bid (final conc=25 nM) and the reaction continued for 30 min at RT. Samples were then centrifuged (12,000×g, 10 min) and 50 μl of the supernatant analyzed for cytochrome C content by ELISA (R & D Systems, #DCTCO).

[2] = target: T1, Recombinant GST-Bax protein (Homo sapiens, UniProt Q07812); assay: BAX liposome assay; format: biochemical
T1 construct: purchased Abnova
T1 sequence (Q07812 whole entry): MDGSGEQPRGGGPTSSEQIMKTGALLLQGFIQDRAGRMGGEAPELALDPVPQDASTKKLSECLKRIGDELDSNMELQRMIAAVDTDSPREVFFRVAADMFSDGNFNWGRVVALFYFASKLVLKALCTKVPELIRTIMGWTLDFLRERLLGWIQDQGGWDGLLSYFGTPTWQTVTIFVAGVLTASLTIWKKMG
Procedure: Inhibition of BAX oligomerization and pore formation was evaluated using a liposome assay preparation. To do so, 30% 1,2-dioleoyl-sn-glycero-3-phosphate and 70% 1,2-dioleoyl-sn-glycero-3-phosphocholine (Avanti Polar Lipids, Alabaster, Ala.) were mixed in chloroform followed by evaporation at 37° C. under nitrogen (Saito et al., 2000). Liposomes were then rehydrated with agitation in buffer containing 50 mM 10 kD-dextran carboxyfluorescein (dextran-CF, Invitrogen, Carlsbad, Calif.), 100 mM KCl, 1 mM EDTA and 20 mM HEPES at pH 7.4. Liposomes were then sized using 5 freeze-thaw cycles, 5 minutes in a sonication bath, followed by 3 passages through a 5 μm syringe filter and 5 passages through a 0.2 μm syringe filter. Free dextran-CF was removed by Sepharose S-300 size exclusion chromatography (GE Healthcare, Piscataway, N.J.). Recombinant GST-Bax protein (Abnova, Taipei, Taiwan) was activated by incubating for 30 minutes in 2% octyglucoside in the presence or absence of compound X in a 96-well plate. Liposomes were then added to the activated GST-Bax (final concentration 10 nM). Carboxyfluorescein release from liposomes was measured by excitation with 497 nm light and the […] monitored for 15 minutes.

[3] = tested on: SH-SY5Y human neuroblastoma cells; assay: In vitro human SHSY5Y survival assay (neuronal survival assay); format: cell-based; conditions: n=2
Procedure: In Vitro Human SHSY5Y Survival Assay
In order to determine if compounds effect cell survival, we tested them in an in vitro assay using the human neuroblastoma cell line SH-SY5Y. SH-SY5Y human neuroblastoma cells treated with retinoic acid for 5 days produce a homogeneous population of neuronal differentiated cells that are strictly dependant on BDNF for their survival. SH-SY5Y cells are plated on 96-well collagen coated plates and incubated for 24 hours. Retinoic acid is then added and incubated on the cells for 5 days. After 5 days, media with retinoic acid is removed and replaced with serum free media+/−compound. Each plate includes basal media (negative) and BDNF (positive) controls. The cells are then fixed with paraformaldehyde (3.7%) and stained with the nuclear marker Hoechst and the neuronal marker beta-Tubulin III. The plate is imaged using the In Cell Analyzer 2000™. Each well is imaged in 9 different spots throughout the well. The images are analyzed with a custom-designed algorithm using the In Cell Developer™ software. Data is averaged per compound concentration and calculated as a background subtracted percent of positive control.

IC50 [2] | Structure (SMILES) | inhibition of cytochrome C release [1] | EC50 [3]
– | FC(F)(F)c1ccc2c(c1)N(CCCN1CC3(CNC3)C1)c1ccccc1S2 [Example 4, 10-(3-(2,6-diazaspiro[3.3]heptan-2-yl)propyl)-2-(trifluoromethyl)-10H-phenothiazine] | 27% | –
– | OC(CN1CC2(CNC2)C1)CN1c2ccccc2Sc2ccc(C(F)(F)F)cc21 (racemic) [Example 3, (±)-1-(2,6-diazaspiro[3.3]heptan-2-yl)-3-(2-(trifluoromethyl)-10H-phenothiazin-10-yl)propan-2-ol] | 93% | –
24.6 µM | OC(CN1CC2(COC2)C1)CN1c2ccccc2Sc2ccc(C(F)(F)F)cc21 (racemic) [Example 1, (±)-1-(2-oxa-6-azaspiro[3.3]heptan-6-yl)-3-(2-(trifluoromethyl)-10H-phenothiazin-10-yl)propan-2-ol] | – | 0.509 µM
